Measurements: the NIST ThermoML archive (doi:10.1016/j.jct.2018.06.014)
± gives the expanded uncertainty stated by the source.

How the values were obtained:
[1] = for Glass transition temperature: DSC; for Normal melting temperature: Crystal 1, DTA
[2] = Molar enthalpy of transition or fusion; conditions: Crystal 1; DSC

SMILES	Glass transition temperature [1] [°C]	Molar enthalpy of transition or fusion [2] [kcal/mol]	Normal melting temperature [1] [°C]
CCCC[N+]1(C)CCCCC1.O=S(=O)([N-]S(=O)(=O)C(F)(F)F)C(F)(F)F	-72.00 ± 2	–	–
COP(=O)([O-])OC.Cn1cc[n+](C)c1 [1,3-dimethylimidazolium dimethylphosphate]	-63.00 ± 2	–	–
CCCC[N+]1(C)CCCCC1.O=S(=O)([O-])C(F)(F)F [1-butyl-1-methylpiperidinium trifluoromethanesulfonate]	–	5.5 ± 0.478	36.00 ± 2
CCCCn1cc[n+](C)c1.O=S(=O)([O-])C(F)(F)F [1-butyl-3-methylimidazolium trifluoromethanesulfonate]	–	6.21 ± 0.717	18.00 ± 2
CCN(C)CC.CS(=O)(=O)O [diethylmethylammonium methanesulfonate]	–	3.35 ± 0.478	39.00 ± 2
CC[NH+](C)CC.O=S(=O)([O-])C(F)(F)F [diethylmethylammonium trifluoromethanesulfonate]	–	4.06 ± 0.478	-5.00 ± 2
